{"source": "ChEMBL document CHEMBL4002568", "about": "“Synthesis, alkaline phosphatase inhibition studies and molecular docking of novel derivatives of 4-quinolones” (Eur J Med Chem, 2017)", "key": {"[1]": {"target": "Intestinal-type alkaline phosphatase (Bos taurus, UniProt P19111)", "sequence (P19111 whole entry)": "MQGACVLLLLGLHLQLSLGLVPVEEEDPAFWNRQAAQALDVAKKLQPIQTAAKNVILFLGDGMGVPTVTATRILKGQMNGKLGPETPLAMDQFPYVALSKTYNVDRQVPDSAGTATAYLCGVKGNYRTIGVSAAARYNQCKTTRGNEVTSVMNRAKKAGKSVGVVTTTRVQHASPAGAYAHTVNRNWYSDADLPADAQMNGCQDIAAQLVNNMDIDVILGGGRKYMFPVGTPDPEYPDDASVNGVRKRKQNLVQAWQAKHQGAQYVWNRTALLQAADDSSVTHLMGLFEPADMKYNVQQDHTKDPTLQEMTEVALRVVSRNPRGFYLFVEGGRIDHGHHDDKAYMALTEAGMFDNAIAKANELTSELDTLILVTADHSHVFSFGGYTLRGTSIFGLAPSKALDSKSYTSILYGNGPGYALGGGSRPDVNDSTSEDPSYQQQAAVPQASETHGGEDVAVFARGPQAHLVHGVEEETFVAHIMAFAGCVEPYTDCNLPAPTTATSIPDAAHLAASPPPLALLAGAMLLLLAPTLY", "test": "Inhibition of calf intestinal alkaline phosphatase using CDP-star as substrate preincubated for 5 to 7 mins followed by substrate addition measured after 15 mins by spectrophotometric method"}, "[2]": {"target": "T1, Alkaline phosphatase, tissue-nonspecific isozyme (Bos taurus, UniProt P09487)", "T1 sequence (P09487 whole entry)": "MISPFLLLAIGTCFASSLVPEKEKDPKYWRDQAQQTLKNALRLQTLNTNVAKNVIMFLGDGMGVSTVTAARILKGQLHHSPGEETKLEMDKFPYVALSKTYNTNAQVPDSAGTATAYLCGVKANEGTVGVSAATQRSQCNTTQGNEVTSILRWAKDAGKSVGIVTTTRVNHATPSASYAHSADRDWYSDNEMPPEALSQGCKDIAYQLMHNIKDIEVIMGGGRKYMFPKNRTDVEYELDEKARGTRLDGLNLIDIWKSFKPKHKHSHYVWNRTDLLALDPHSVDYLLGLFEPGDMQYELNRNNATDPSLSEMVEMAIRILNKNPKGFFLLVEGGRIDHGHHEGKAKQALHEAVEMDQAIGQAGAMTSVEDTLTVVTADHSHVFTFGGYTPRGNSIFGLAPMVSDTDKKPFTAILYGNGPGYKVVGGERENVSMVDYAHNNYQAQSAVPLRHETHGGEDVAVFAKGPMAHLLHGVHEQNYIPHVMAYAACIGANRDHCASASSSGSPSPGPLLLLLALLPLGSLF", "test": "Inhibition of bovine TNAP using CDP-star as substrate preincubated for 5 to 7 mins followed by substrate addition measured after 15 mins by spectrophotometric method"}, "[3]": {"target": "T2, Alkaline phosphatase, tissue-nonspecific isozyme (Bos taurus) (UniProt P09487)", "T2 sequence (whole entry)": "T1 sequence (P09487 whole entry)", "test": "Inhibition of bovine TNAP at 0.2 mM using CDP-star as substrate preincubated for 5 to 7 mins followed by substrate addition measured after 15 mins by spectrophotometric method"}, "[4]": {"target": "Intestinal-type alkaline phosphatase (Bos taurus) (UniProt P19111)", "sequence (P19111 20-506 limits assumed)": "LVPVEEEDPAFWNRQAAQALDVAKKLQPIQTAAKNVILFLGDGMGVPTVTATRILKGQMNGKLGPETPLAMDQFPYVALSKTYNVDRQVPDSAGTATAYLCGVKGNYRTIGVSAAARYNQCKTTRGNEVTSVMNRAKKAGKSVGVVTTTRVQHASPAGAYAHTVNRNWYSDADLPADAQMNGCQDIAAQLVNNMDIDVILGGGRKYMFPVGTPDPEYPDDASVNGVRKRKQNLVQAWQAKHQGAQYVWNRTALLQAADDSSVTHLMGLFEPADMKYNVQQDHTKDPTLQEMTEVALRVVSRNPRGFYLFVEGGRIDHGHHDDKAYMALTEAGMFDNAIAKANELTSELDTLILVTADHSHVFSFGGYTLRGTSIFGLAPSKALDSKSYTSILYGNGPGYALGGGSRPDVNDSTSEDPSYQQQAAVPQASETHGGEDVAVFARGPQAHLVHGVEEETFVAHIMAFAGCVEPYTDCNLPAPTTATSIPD", "test": "Potency index, ratio of L-phenylalanine IC50 to test compound IC50 for calf intestinal alkaline phosphatase"}, "[5]": {"target": "Intestinal-type alkaline phosphatase (Bos taurus) (UniProt P19111)", "test": "Inhibition of calf intestinal alkaline phosphatase at 0.2 mM using CDP-star as substrate preincubated for 5 to 7 mins followed by substrate addition measured after 15 mins by spectrophotometric method"}}, "data": [{"smiles": "Cc1ccc(-c2c(Br)c(=O)c3cc([N+](=O)[O-])ccc3n2C(C)c2ccccc2)cc1", "note": "(stereo not drawn)", "values": [{"measurement": "IC50", "setting": "[1]", "result": 2.47, "unit": "µM"}, {"measurement": "IC50", "setting": "[2]", "result": 1.34, "unit": "µM"}]}, {"smiles": "Cc1ccc(-c2cc(=O)c3cc([N+](=O)[O-])ccc3[nH]2)cc1", "values": [{"measurement": "IC50", "setting": "[1]", "result": 6.25, "unit": "µM"}, {"measurement": "IC50", "setting": "[2]", "result": 2.56, "unit": "µM"}]}, {"smiles": "CCCCCc1[nH]c2ccc([N+](=O)[O-])cc2c(=O)c1Br", "values": [{"measurement": "IC50", "setting": "[1]", "result": 3.06, "unit": "µM"}, {"measurement": "IC50", "setting": "[2]", "result": 17.2, "unit": "µM"}]}, {"smiles": "COc1ccc(Cn2c(-c3ccc(C)cc3)c(-c3ccc(OC)cc3)c(=O)c3cc([N+](=O)[O-])ccc32)cc1", "values": [{"measurement": "inhibition", "setting": "[3]", "result": 46.8, "unit": "%"}, {"measurement": "Ratio IC50", "setting": "[4]", "result": 40}, {"measurement": "IC50", "setting": "[1]", "result": 2.04, "unit": "µM"}]}, {"smiles": "CCc1ccc(-c2c(-c3ccc(C)cc3)n(Cc3ccc(OC)cc3)c3ccc([N+](=O)[O-])cc3c2=O)cc1", "values": [{"measurement": "IC50", "setting": "[1]", "result": 5.75, "unit": "µM"}, {"measurement": "IC50", "setting": "[2]", "result": 1.66, "unit": "µM"}]}, {"smiles": "CCCCCc1cc(=O)c2cc([N+](=O)[O-])ccc2[nH]1", "values": [{"measurement": "IC50", "setting": "[1]", "result": 16.7, "unit": "µM"}, {"measurement": "IC50", "setting": "[2]", "result": 44.8, "unit": "µM"}]}, {"smiles": "Cc1ccc(-c2[nH]c3ccc([N+](=O)[O-])cc3c(=O)c2Br)cc1", "values": [{"measurement": "IC50", "setting": "[1]", "result": 12.1, "unit": "µM"}, {"measurement": "IC50", "setting": "[2]", "result": 6.47, "unit": "µM"}]}, {"smiles": "COc1ccc(Cn2c(-c3ccc(C)cc3)cc(=O)c3cc([N+](=O)[O-])ccc32)cc1", "values": [{"measurement": "inhibition", "setting": "[5]", "result": 48.6, "unit": "%"}, {"measurement": "IC50", "setting": "[2]", "result": 133, "unit": "µM"}]}, {"smiles": "COc1ccc(Cn2c(-c3ccc(C)cc3)c(-c3ccc(C(F)(F)F)cc3)c(=O)c3cc([N+](=O)[O-])ccc32)cc1", "values": [{"measurement": "IC50", "setting": "[1]", "result": 8.34, "unit": "µM"}, {"measurement": "IC50", "setting": "[2]", "result": 6.19, "unit": "µM"}]}, {"smiles": "COc1ccc(-c2c(-c3ccc(C)cc3)[nH]c3ccc(N)cc3c2=O)cc1", "values": [{"measurement": "IC50", "setting": "[1]", "result": 1.06, "unit": "µM"}, {"measurement": "IC50", "setting": "[2]", "result": 14.8, "unit": "µM"}]}, {"smiles": "COc1ccc(Cn2c(-c3ccc(C)cc3)c(C(F)(F)F)c(=O)c3cc([N+](=O)[O-])ccc32)cc1", "values": [{"measurement": "IC50", "setting": "[1]", "result": 4.58, "unit": "µM"}, {"measurement": "IC50", "setting": "[2]", "result": 4.53, "unit": "µM"}]}, {"smiles": "CCCCCc1c(-c2ccc(C(F)(F)F)cc2)c(=O)c2cc([N+](=O)[O-])ccc2n1Cc1ccc(OC)cc1", "values": [{"measurement": "inhibition", "setting": "[5]", "result": 48.6, "unit": "%"}, {"measurement": "IC50", "setting": "[2]", "result": 38.5, "unit": "µM"}]}, {"smiles": "COc1ccc(Cn2c(-c3ccc(C)cc3)c(-c3ccc(C)cc3)c(=O)c3cc(N)ccc32)cc1", "values": [{"measurement": "inhibition", "setting": "[5]", "result": 38.7, "unit": "%"}, {"measurement": "IC50", "setting": "[2]", "result": 15.1, "unit": "µM"}]}, {"smiles": "CCCCCc1c(Br)c(=O)c2cc([N+](=O)[O-])ccc2n1Cc1ccc(OC)cc1", "values": [{"measurement": "IC50", "setting": "[1]", "result": 122, "unit": "µM"}, {"measurement": "IC50", "setting": "[2]", "result": 9.51, "unit": "µM"}]}, {"smiles": "COc1ccc(Cn2c(-c3ccc(C)cc3)c(-c3ccc(C)cc3)c(=O)c3cc([N+](=O)[O-])ccc32)cc1", "values": [{"measurement": "inhibition", "setting": "[3]", "result": 46.1, "unit": "%"}, {"measurement": "Ratio IC50", "setting": "[4]", "result": 40}, {"measurement": "IC50", "setting": "[1]", "result": 2.92, "unit": "µM"}]}, {"smiles": "COc1ccc(Cn2c(-c3ccc(C)cc3)c(Br)c(=O)c3cc([N+](=O)[O-])ccc32)cc1", "values": [{"measurement": "IC50", "setting": "[1]", "result": 2.43, "unit": "µM"}, {"measurement": "IC50", "setting": "[2]", "result": 4.22, "unit": "µM"}]}, {"smiles": "COc1ccc(Cn2c(-c3ccc(C)cc3)c(-c3ccccc3C=O)c(=O)c3cc([N+](=O)[O-])ccc32)cc1", "values": [{"measurement": "IC50", "setting": "[1]", "result": 192, "unit": "µM"}, {"measurement": "IC50", "setting": "[2]", "result": 2.35, "unit": "µM"}]}, {"smiles": "Cc1ccc(-c2cc(=O)c3cc(N)ccc3[nH]2)cc1", "values": [{"measurement": "IC50", "setting": "[1]", "result": 16.2, "unit": "µM"}, {"measurement": "IC50", "setting": "[2]", "result": 19.4, "unit": "µM"}]}, {"smiles": "COc1ccc(C(C)n2c(-c3ccc(C)cc3)cc(=O)c3cc([N+](=O)[O-])ccc32)cc1", "note": "(stereo not drawn)", "values": [{"measurement": "IC50", "setting": "[1]", "result": 4.75, "unit": "µM"}, {"measurement": "IC50", "setting": "[2]", "result": 17.9, "unit": "µM"}]}, {"smiles": "COc1ccc(Cn2c(-c3ccc(C)cc3)c(-c3cc(C)cc(C)c3)c(=O)c3cc([N+](=O)[O-])ccc32)cc1", "values": [{"measurement": "IC50", "setting": "[1]", "result": 28.7, "unit": "µM"}, {"measurement": "IC50", "setting": "[2]", "result": 4.74, "unit": "µM"}]}, {"smiles": "CCCCCc1cc(=O)c2cc([N+](=O)[O-])ccc2n1Cc1ccc(OC)cc1", "values": [{"measurement": "IC50", "setting": "[1]", "result": 1.38, "unit": "µM"}, {"measurement": "IC50", "setting": "[2]", "result": 1.51, "unit": "µM"}]}, {"smiles": "Cc1ccc(-c2[nH]c3ccc([N+](=O)[O-])cc3c(=O)c2-c2ccc(C(F)(F)F)cc2)cc1", "values": [{"measurement": "IC50", "setting": "[1]", "result": 4.38, "unit": "µM"}, {"measurement": "IC50", "setting": "[2]", "result": 2.69, "unit": "µM"}]}, {"smiles": "Cc1ccc(-c2[nH]c3ccc(NC(=O)C(F)(F)F)cc3c(=O)c2-c2ccc(C)cc2)cc1", "values": [{"measurement": "IC50", "setting": "[1]", "result": 1.67, "unit": "µM"}, {"measurement": "IC50", "setting": "[2]", "result": 6.02, "unit": "µM"}]}]}
